Laboratory results taken from the supplement of paper PMC11208160.

Assay: recombinant UMI read abundance after kanamycin selection (control-corrected) (log10(CPM+1)); higher = more efficient recombination; extreme values may be limits of the assay; sequences stand for … in AGTGCAGAGAAAATCGGCCAGTTTTCTCTGCCTGCAGTCCGCATGCCGTGGGACCCCTTGGGTTCTAACCTGTTGCCTAGATTTATGCAGCGGACTGCCTTTCTCCCAAAGTGATAAACCGG…AGGTTGGTTTCACT; site = the 11-nt donor
In short: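 In Escherichia coli, a pool of donor and donor-binding-loop pairs, each with a 12-nt UMI, was tested for the IS621 bridge recombinase. Plating was on IPTG (0.07 mM) plus kanamycin, or without selection, in two replicates. Recombinant UMIs were amplified by PCR across the donor–target junction and sequenced, and counts were reported as log10(CPM+1) after averaging and control-derived scaling.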
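Note: IS621 bridge recombinase in Escherichia coli cells against a fixed T5 target plasmid.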

Row | Sequence | recombinant UMI read abundance (log10)
1 | CTAGTAACATGGACCGGTTTTCCCGGTAATCCGTATTTGGA (site CTAATAACTTC) | 1.33
2 | CTAGTAACATGGACCGGTTTTCCCGGTAATCCGTATTTGGA (site CTACTAACTTC) | 0.119
3 | CTAGTAACATGGACCGGTTTTCCCGGTAATCCGTATTTGGA (site CTAGTAACTTC) | 1.98
4 | CTAGTAACATGGACCGGTTTTCCCGGTAATCCGTATTTGGA (site CTATTAACTTC) | 0.00934
5 | CTAGTACCATGGACCGGTTTTCCCGGTAATCCGTATTTGAT (site CTAGTACCTAT) | 0
6 | CTAGTACCATGGACCGGTTTTCCCGGTAATCCGTATTTGAT (site CTAGTATCTGT) | 1.35
7 | CTAGTAGCATGGACCGGTTTTCCCGGTAATCCGTATTTGCC (site CTAGTAGCTGG) | 1.64
8 | CTAGTAGCATGGACCGGTTTTCCCGGTAATCCGTATTTGCC (site CTAGTATCTGT) | 0
9 | CTAGTATCATGGACCGGTTTTCCCGGTAATCCGTATTTGCC (site CTAGTATCTGA) | 2.78
10 | CTAGTATCATGGACCGGTTTTCCCGGTAATCCGTATTTGCC (site CTAGTATCTGC) | 2.28
11 | CTAGTATCATGGACCGGTTTTCCCGGTAATCCGTATTTGCC (site CTAGTATCTGG) | 3.09
12 | CTAGTATCATGGACCGGTTTTCCCGGTAATCCGTATTTGCC (site CTAGTATCTGT) | 2.66
13 | CTAGTGTCATGGACCGGTTTTCCCGGTAATCCGTATTTGAT (site CTAGTATCTGT) | 1.55
14 | CTAGTGTCATGGACCGGTTTTCCCGGTAATCCGTATTTGAT (site CTAGTGTCTAT) | 2.25
15 | CTAGTGTCATGGACCGGTTTTCCCGGTAATCCGTATTTGGC (site CTAGTATCTGT) | 1.29
16 | CTAGTGTCATGGACCGGTTTTCCCGGTAATCCGTATTTGGC (site CTAGTGTCTGC) | 2.17
17 | CTAGTGTCATGGACCGGTTTTCCCGGTAATCCGTATTTGGT (site CTAGTGTCTAC) | 2.6
18 | CTATACACATGGACCGGTTTTCCCGGTAATCCGTATTTGCT (site CTATACACTAG) | 2.38
19 | CTATACACATGGACCGGTTTTCCCGGTAATCCGTATTTGCT (site CTCTACACTAG) | 1.53
20 | CTATACACATGGACCGGTTTTCCCGGTAATCCGTATTTGCT (site CTGTACACTAG) | 0.705
21 | CTATACACATGGACCGGTTTTCCCGGTAATCCGTATTTGCT (site CTTTACACTAG) | 0.92
22 | CTATACTCATGGACCGGTTTTCCCGGTAATCCGTATTTGTT (site CTATACTCTAA) | 3.11
23 | CTATATACATGGACCGGTTTTCCCGGTAATCCGTATTTGAC (site CTATATACTGT) | 3.02

Row | Sequence | recombinant UMI read abundance (log10)
24 | CTATCAACATGGACCGGTTTTCCCGGTAATCCGTATTTGCT (site CGATCATCTAG) | 0.00622
25 | CTATCAACATGGACCGGTTTTCCCGGTAATCCGTATTTGCT (site CTATCAACTAG) | 1.92
26 | CTATCATCATGGACCGGTTTTCCCGGTAATCCGTATTTGGT (site CGATCATCTAG) | 0
27 | CTATCATCATGGACCGGTTTTCCCGGTAATCCGTATTTGGT (site CTATCATCTAC) | 0.706
28 | CTATCCTCATGGACCGGTTTTCCCGGTAATCCGTATTTGAA (site CTATCCTCTTT) | 2.6
29 | CTATTCCCATGGACCGGTTTTCCCGGTAATCCGTATTTGCT (site CAATTCCCTAG) | 0.77
30 | CTATTCCCATGGACCGGTTTTCCCGGTAATCCGTATTTGCT (site CCATTCCCTAG) | 1.43
31 | CTATTCCCATGGACCGGTTTTCCCGGTAATCCGTATTTGCT (site CGATTCCCTAG) | 0.475
32 | CTATTCCCATGGACCGGTTTTCCCGGTAATCCGTATTTGCT (site CTATTCCCTAG) | 0.845
33 | CTCAACACATGGACCGGTTTTCCCGGTAATCCGTATTTGCT (site CTCAACACTAG) | 2
34 | CTCAACACATGGACCGGTTTTCCCGGTAATCCGTATTTGCT (site CTCCACACTAG) | 0.438
35 | CTCAACACATGGACCGGTTTTCCCGGTAATCCGTATTTGCT (site CTCGACACTAG) | 0.368
36 | CTCAACACATGGACCGGTTTTCCCGGTAATCCGTATTTGCT (site CTCTACACTAG) | 1.23
37 | CTCAAGCCATGGACCGGTTTTCCCGGTAATCCGTATTTGAG (site CTCAAGCCTCT) | 0
38 | CTCAGAACATGGACCGGTTTTCCCGGTAATCCGTATTTGCC (site CTCAGAACTGG) | 1.47
39 | CTCAGACCATGGACCGGTTTTCCCGGTAATCCGTATTTGCG (site CTCAGACCTCG) | 0
40 | CTCAGGACATGGACCGGTTTTCCCGGTAATCCGTATTTGAG (site CTCAGGACTCT) | 0
41 | CTCCACACATGGACCGGTTTTCCCGGTAATCCGTATTTGCT (site CTCAACACTAG) | 0
42 | CTCCACACATGGACCGGTTTTCCCGGTAATCCGTATTTGCT (site CTCCACACTAG) | 2.08
43 | CTCCACACATGGACCGGTTTTCCCGGTAATCCGTATTTGCT (site CTCGACACTAG) | 0
44 | CTCCACACATGGACCGGTTTTCCCGGTAATCCGTATTTGCT (site CTCTACACTAG) | 1.54
45 | CTCCACGCATGGACCGGTTTTCCCGGTAATCCGTATTTGTT (site CTCCACGCTAA) | 1.57
46 | CTCCCGACATGGACCGGTTTTCCCGGTAATCCGTATTTGGA (site CTCCCGACTTC) | 0.231

Row | Sequence | recombinant UMI read abundance (log10)
47 | CTCCCTACATGGACCGGTTTTCCCGGTAATCCGTATTTGTG (site CTCCCTACTCA) | 0.525
48 | CTCCCTACATGGACCGGTTTTCCCGGTAATCCGTATTTGTG (site CTCCCTACTCC) | 0.617
49 | CTCCCTACATGGACCGGTTTTCCCGGTAATCCGTATTTGTG (site CTCCCTACTCG) | 0.143
50 | CTCCCTACATGGACCGGTTTTCCCGGTAATCCGTATTTGTG (site CTCCCTACTCT) | 0.00616
51 | CTCCGTACATGGACCGGTTTTCCCGGTAATCCGTATTTGCT (site CACCGTACTAG) | 1.41
52 | CTCCGTACATGGACCGGTTTTCCCGGTAATCCGTATTTGCT (site CCCCGTACTAG) | 1.28
53 | CTCCGTACATGGACCGGTTTTCCCGGTAATCCGTATTTGCT (site CGCCGTACTAG) | 0.00286
54 | CTCCGTACATGGACCGGTTTTCCCGGTAATCCGTATTTGCT (site CTCCGTACTAG) | 1.45
55 | CTCCTGTCATGGACCGGTTTTCCCGGTAATCCGTATTTGAC (site CTCCTGTCTGT) | 0
56 | CTCGCGGCATGGACCGGTTTTCCCGGTAATCCGTATTTGCC (site CTCGCGGCTGG) | 0
57 | CTCGCTACATGGACCGGTTTTCCCGGTAATCCGTATTTGCA (site CTCGCTACTTG) | 2.41
58 | CTCGCTCCATGGACCGGTTTTCCCGGTAATCCGTATTTGAG (site CTCGCTCCTCT) | 0.0649
59 | CTCGTAACATGGACCGGTTTTCCCGGTAATCCGTATTTGAC (site CTAGTATCTGT) | 0.0113
60 | CTCGTAACATGGACCGGTTTTCCCGGTAATCCGTATTTGAC (site CTCGTAACTGT) | 2.56
61 | CTCGTATCATGGACCGGTTTTCCCGGTAATCCGTATTTGAC (site CTAGTATCTGT) | 0.00452
62 | CTCGTATCATGGACCGGTTTTCCCGGTAATCCGTATTTGAC (site CTCGTATCTGT) | 2.6
63 | CTCGTATCATGGACCGGTTTTCCCGGTAATCCGTATTTGAC (site CTGGTATCTGT) | 0
64 | CTCGTATCATGGACCGGTTTTCCCGGTAATCCGTATTTGAC (site CTTGTATCTGT) | 0
65 | CTCTAAACATGGACCGGTTTTCCCGGTAATCCGTATTTGCT (site CTCTAAACTAG) | 2.06
66 | CTCTAAACATGGACCGGTTTTCCCGGTAATCCGTATTTGCT (site CTCTACACTAG) | 0.676
67 | CTCTAAACATGGACCGGTTTTCCCGGTAATCCGTATTTGCT (site CTCTAGACTAG) | 0.36
68 | CTCTAAACATGGACCGGTTTTCCCGGTAATCCGTATTTGCT (site CTCTATACTAG) | 0
